Source: patent US10029986B2, “Alkynyl pyridine-substituted amide compound and pesticide” (NISSAN CHEMICAL INDUSTRIES, LTD., priority 2014, dated 2018)

Key:
[1] = tested on: Blumeria graminis f. sp. tritici; assay: Test on the preventive effect against wheat powdery mildew; assay type: in vivo; settings: 168 h, test solution A 500 ppm, 5 ml per pot, wheat 1.3-leaf stage, 7 days after inoculation
In short: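 Compounds formulated as 20 wt % emulsifiable concentrates and diluted with water to 500 ppm; 5 ml per pot applied to wheat (Norin 61) at the 1.3-leaf stage. Conidia inoculated one day later in a 20° C greenhouse; lesion proportion scored after 7 days as control value, in duplicate.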

[2] = tested on: Barber pole worm (Haemonchus contortus); assay: Insecticidal test against Barber pole worm (eggs, 96 well plate); assay type: in vivo; settings: 96 h, test solution B 100 ppm, 10 μl per well, 25° C. dark, 4 days after treatment, read-out: efficacy (unhatched eggs and inactive larvae relative to non-treated)
Procedure: (§1) Compounds of the present invention were dissolved in dimethyl sulfoxide to prepare 1 wt % solutions. Then, distilled water was added to dilute the solutions to the prescribed concentration (100 ppm), and the obtained solutions were used in the following the Test Examples 9 to 12. 60 μl of a potato dextrose 1% agar medium was added to each well of a 96 well plate, and 30 μl of sterilized water containing eggs of Barber pole worm (Haemonchus contortus) (10 eggs/3 μl) was added to each well. Further, 10 μl per well of test solution B of the compounds of the present invention was added, and the plate was left at rest at 25° C. under dark conditions.

Asperaillus niger = assay: Test on the antifungal activity against Asperaillus niger; assay type: cell-based; settings: 48 h; test solution B 100 ppm, 10 μl per well, 96 well plate, 25° C. dark, 2 days after treatment; read-out: efficacy (flora area ratio relative to non-treated well)
Procedure: as §1, with “spores” for “eggs”, “Asperaillus niger” for “Barber pole worm (Haemonchus contortus)”, “spores/3” for “eggs/3”, “conditions. 2 days after treatment, the flora area ratio (%) was determined to calculate the efficacy (%) relative to the non-treated well in accordance with the following formula. Efficacy (%)=[1−(flora area ratio in treated plot/flora area ratio in non-treated well)]×100” for “conditions.”

Sclerotinia sclerotiorum = assay: Test on the preventive effect against cucumber stem rot; assay type: in vivo; settings: 48 h, test solution A 500 ppm, 5 ml per pot, agar block inoculation, 2 days at 20° C.
In short: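 Cucumber (Sagami Hanjiro) at cotyledon stage sprayed with 5 ml/pot of 500 ppm compound from a 20 wt % emulsifiable concentrate, air-dried, then inoculated on seed leaves with agar blocks of S. sclerotiorum grown on PDA. Kept humid at 20° C for 2 days; lesion proportion scored and control value calculated, in duplicate.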

[3] = tested on: Erysiphe polygoni (synonym: Erysiphe betae); assay: Test on the preventive effect against cucumber powdery mildew; assay type: in vivo; settings: 216 h, test solution A 500 ppm, 5 ml per pot sprayed, cucumber cotyledon stage, 9 days after inoculation
In short: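 Cucumber (Sagami Hanjiro) at cotyledon stage sprayed with 500 ppm compound (diluted from 20 wt% emulsifiable concentrate), air-dried, then inoculated with Erysiphe polygoni conidia. Kept 9 days at 20 °C in greenhouse; lesion area ratio scored in duplicate, control value = [1−(treated/untreated lesion ratio)]×100.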

Botrytis cinerea = assay: Test on the preventive effect against cucumber gray mold (mycelium inoculation); assay type: in vivo; settings: 48 h, test solution A 500 ppm, 5 ml per pot, cucumber cotyledon, agar block inoculation, 2 days at 20° C.
In short: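 Cucumber cotyledons (Sagami Hanjiro) were sprayed with 5 ml per pot of a 500 ppm dilution of a 20 wt % emulsifiable concentrate. Next day, mycelial agar plugs of Botrytis cinerea were placed on cotyledons, held humid at 20° C for 2 days. Lesion proportion gave the control value; duplicate.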

| SMILES | pest or weed control at 500 µg/mL [1] [%] | pest or weed control at 100 µg/mL [2] [%] | inhibition of growth at 100 µg/mL (Asperaillus niger) [%] | pest or weed control at 500 µg/mL (Sclerotinia sclerotiorum) [%] | pest or weed control at 500 µg/mL [3] [%] | pest or weed control at 500 µg/mL (Botrytis cinerea) [%] |
| --- | --- | --- | --- | --- | --- | --- |
| O=C(NCC(F)(F)c1ncc(C#CC2CC2)cc1Cl)c1ccccc1C(F)(F)F [1-005] | ≥ 70 | ≥ 50 | ≥ 50 | ≥ 70 | ≥ 70 | ≥ 70 |
| Cc1nc(C(F)F)c(C(=O)NCC(C)c2ncc(C#CC3CC3)cc2Cl)s1 (stereo not drawn) [9-002] | ≥ 70 | ≥ 50 | ≥ 50 | ≥ 70 | ≥ 70 | ≥ 70 |
| COC(c1ncc(C#CC(C)(C)C)cc1Cl)C(C)NC(=O)c1ccccc1C(F)(F)F (stereo not drawn) [1-025] | ≥ 70 | ≥ 50 | ≥ 50 | ≥ 70 | ≥ 70 | ≥ 70 |
| CC(CNC(=O)c1cn(C)nc1C(F)F)c1ncc(C#CC2CC2)cc1Cl (stereo not drawn) [8-007] | ≥ 70 | ≥ 50 | ≥ 50 | ≥ 70 | ≥ 70 | ≥ 70 |
| O=C(NCCc1ncc(C#CC2CC2)cc1Cl)c1ccccc1C(F)(F)F [1-002] | ≥ 70 | ≥ 50 | ≥ 50 | ≥ 70 | ≥ 70 | ≥ 70 |
| COC(CNC(=O)c1cn(C)nc1C(F)F)c1ncc(C#CC2CC2)cc1Cl (stereo not drawn) [8-019] | ≥ 70 | ≥ 50 | ≥ 50 | ≥ 70 | ≥ 70 | ≥ 70 |
| Cn1cc(C(=O)NCC(c2ncc(C#CC3CC3)cc2Cl)C2CC2)c(C(F)F)n1 (stereo not drawn) [8-009] | ≥ 70 | ≥ 50 | ≥ 50 | ≥ 70 | ≥ 70 | ≥ 70 |
| O=C(NCCc1ncc(C#CC2CC2)cc1Cl)c1cccnc1C(F)F [3-001, N-[2-[3-chloro-5-(cyclopropylethynyl)pyridin-2-yl]ethyl]-2-(difluoromethyl)nicotinamide] | ≥ 70 | ≥ 50 | ≥ 50 | ≥ 70 | ≥ 70 | ≥ 70 |
| CC(C)(C)C#Cc1cnc(CCNC(=O)c2ccccc2C(F)(F)F)c(Cl)c1 [1-003, N-[2-[3-chloro-5-(3,3-dimethyl-1-butynyl)pyridin-2-yl]ethyl]-2-(trifluoromethyl)benzamide] | ≥ 70 | ≥ 50 | ≥ 50 | ≥ 70 | ≥ 70 | ≥ 70 |
| CSC(CNC(=O)c1cn(C)nc1C(F)F)c1ncc(C#CC2CC2)cc1Cl (stereo not drawn) [8-020, N-[2-[3-chloro-5-(cyclopropylethynyl)pyridin-2-yl]-2-(methylthio)ethyl]-3-difluoromethyl-1-methyl-1H-pyrazole-4-carboxamide] | ≥ 70 | ≥ 50 | ≥ 50 | ≥ 70 | ≥ 70 | ≥ 70 |
